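Compound exposure: 48 hours, 5 concentrations, 96-well plates. At the GI50, growth is halved.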 Calls of active or inactive are those of the source. Rule as the data show it: active = GI50 up to about 1.1 µM and inactive = higher.
Legend:
Assay in all cases: inhibition of tumour cell growth, NCI panel, 48 h
[1] = tested on: 786-0
[2] = tested on: A498
[3] = tested on: A549
[4] = tested on: ACHN
[5] = tested on: BT-549
[6] = tested on: CAKI-1
[7] = tested on: CCRF-CEM
[8] = tested on: COLO 205
[9] = tested on: DU-145
[10] = tested on: EKVX
[11] = tested on: HCC 2998
[12] = tested on: HCT-116
[13] = tested on: HCT-15
[14] = tested on: HL-60
[15] = tested on: HOP-62
[16] = tested on: HOP-92
[17] = tested on: HT-29
[18] = tested on: Hs-578T
[19] = tested on: IGROV-1
[20] = tested on: K562
[21] = tested on: KM12
[22] = tested on: LOX IMVI
[23] = tested on: M14
[24] = tested on: MCF7
[25] = tested on: MDA-MB-231
[26] = tested on: MDA-MB-435
[27] = tested on: MDA-N
[28] = tested on: MOLT-4
[29] = tested on: Malme-3M
[30] = tested on: NCI-H226
[31] = tested on: NCI-H23
[32] = tested on: NCI-H460
[33] = tested on: NCI-H522
[34] = tested on: NCI/ADR-RES
[35] = tested on: OVCAR-3
[36] = tested on: OVCAR-4
[37] = tested on: OVCAR-5
[38] = tested on: OVCAR-8
[39] = tested on: PC-3
[40] = tested on: RPMI-8226
[41] = tested on: SF-268
[42] = tested on: SF-295
[43] = tested on: SF-539
[44] = tested on: SK-MEL-28
[45] = tested on: SK-MEL-5
[46] = tested on: SK-OV-3
[47] = tested on: SN12C
[48] = tested on: SNB-19
[49] = tested on: SNB-75
[50] = tested on: SR
[51] = tested on: SW-620
[52] = tested on: TK-10
[53] = tested on: U-251
[54] = tested on: UACC-257
[55] = tested on: UACC-62
[56] = tested on: UO-31
[57] = tested on: RXF 393
[58] = tested on: SK-MEL-2
[59] = tested on: T47D

For `COc1ccc(/C=C2\CCCc3ccccc3C2=O)cc1`, the GI50 [1] was 0.0561 µM (active), the GI50 [2] was 0.104 µM (active) and the GI50 [3] was 0.197 µM (active). The GI50 [4] was 3.15 µM (inactive), the GI50 [5] was 0.143 µM (active) and the GI50 [6] was 2.82 µM (inactive). The GI50 [7] was 0.578 µM (active), the GI50 [8] was 0.0904 µM (active) and the GI50 [9] was 0.185 µM (active). For the same compound, the GI50 [10] was 0.39 µM (active), the GI50 [11] was 0.2 µM (active) and the GI50 [12] was 0.244 µM (active). The GI50 [13] was 0.0723 µM, the GI50 [14] was 0.279 µM (active) and the GI50 [15] was 0.187 µM (active). For the same compound, the GI50 [16] was 0.893 µM (active), the GI50 [17] was 0.0849 µM (active) and the GI50 [18] was 0.233 µM (active). For the same compound, the GI50 [19] was 0.0573 µM (active), the GI50 [20] was 0.33 µM (active) and the GI50 [21] was 0.158 µM (active). For the same compound, the GI50 [22] was 0.179 µM (active), the GI50 [23] was 0.0335 µM (active) and the GI50 [24] was 1.27 µM (inactive). For the same compound, the GI50 [25] was 0.201 µM (active), the GI50 [26] was 0.0154 µM (active) and the GI50 [27] was 0.0132 µM (active). The GI50 [28] was 1.63 µM (inactive), the GI50 [29] was 0.0174 µM (active) and the GI50 [30] was 0.116 µM (active). For the same compound, the GI50 [31] was 0.122 µM (active), the GI50 [32] was 0.0893 µM (active) and the GI50 [33] was < 0.0218 µM (active). For the same compound, the GI50 [34] was 0.0416 µM (active), the GI50 [35] was 0.0982 µM (active) and the GI50 [36] was 14.5 µM (inactive). For the same compound, the GI50 [37] was 0.605 µM (active), the GI50 [38] was 0.228 µM (active) and the GI50 [39] was 0.321 µM (active). For the same compound, the GI50 [40] was 0.411 µM (active), the GI50 [41] was 0.249 µM (active) and the GI50 [42] was 0.026 µM (active). The GI50 [43] was 0.287 µM (active), the GI50 [44] was 3.83 µM (inactive) and the GI50 [45] was 0.102 µM (active). For the same compound, the GI50 [46] was 0.119 µM (active), the GI50 [47] was 0.117 µM (active) and the GI50 [48] was 0.36 µM (active). For the same compound, the GI50 [49] was 0.0649 µM (active), the GI50 [50] was 0.452 µM (active) and the GI50 [51] was 0.378 µM (active). The GI50 [52] was 9.06 µM (inactive), the GI50 [53] was 0.508 µM (active) and the GI50 [54] was 3.13 µM (inactive). For the same compound, the GI50 [55] was 0.0292 µM (active) and the GI50 [56] was 1.64 µM (inactive).

For `O=c1[nH]nc(Cc2ccc([N+](=O)[O-])cc2)[nH]1`, the GI50 [1] was > 100 µM (inactive), the GI50 [2] was > 100 µM (inactive) and the GI50 [3] was > 100 µM (inactive). For the same compound, the GI50 [4] was > 100 µM (inactive), the GI50 [5] was > 100 µM (inactive) and the GI50 [6] was > 100 µM (inactive). The GI50 [7] was > 100 µM (inactive), the GI50 [8] was > 100 µM (inactive) and the GI50 [9] was > 100 µM (inactive). For the same compound, the GI50 [10] was 54.6 µM (inactive), the GI50 [11] was > 100 µM (inactive) and the GI50 [12] was > 100 µM (inactive). The GI50 [13] was greater than 100 µM, the GI50 [14] was > 100 µM (inactive) and the GI50 [15] was > 100 µM (inactive). The GI50 [17] was > 100 µM (inactive), the GI50 [18] was 75 µM (inactive) and the GI50 [19] was > 100 µM (inactive). The GI50 [20] was > 100 µM (inactive), the GI50 [21] was > 100 µM (inactive) and the GI50 [22] was > 100 µM (inactive). For the same compound, the GI50 [23] was > 100 µM (inactive), the GI50 [24] was > 100 µM (inactive) and the GI50 [26] was > 100 µM (inactive). The GI50 [27] was > 100 µM (inactive), the GI50 [28] was > 100 µM (inactive) and the GI50 [29] was > 100 µM (inactive). For the same compound, the GI50 [30] was > 100 µM (inactive), the GI50 [31] was > 100 µM (inactive) and the GI50 [32] was > 100 µM (inactive). The GI50 [33] was > 100 µM (inactive), the GI50 [34] was > 100 µM (inactive) and the GI50 [35] was > 100 µM (inactive). For the same compound, the GI50 [36] was > 100 µM (inactive), the GI50 [37] was > 100 µM (inactive) and the GI50 [38] was > 100 µM (inactive). The GI50 [39] was > 100 µM (inactive), the GI50 [40] was > 100 µM (inactive) and the GI50 [57] was > 100 µM (inactive). For the same compound, the GI50 [41] was > 100 µM (inactive), the GI50 [42] was > 100 µM (inactive) and the GI50 [43] was > 100 µM (inactive). The GI50 [44] was > 100 µM (inactive), the GI50 [58] was > 100 µM (inactive) and the GI50 [45] was > 100 µM (inactive). The GI50 [47] was > 100 µM (inactive), the GI50 [48] was > 100 µM (inactive) and the GI50 [49] was > 100 µM (inactive). The GI50 [50] was > 100 µM (inactive), the GI50 [51] was > 100 µM (inactive) and the GI50 [59] was > 100 µM (inactive). The GI50 [52] was > 100 µM (inactive), the GI50 [53] was > 100 µM (inactive) and the GI50 [54] was > 100 µM (inactive). The GI50 [55] was > 100 µM (inactive) and the GI50 [56] was 52.5 µM (inactive).

For `O=C1C=CC2(C=C1)CCC(=O)O2`, the GI50 [1] was 15 µM (inactive), the GI50 [2] was 36.3 µM (inactive) and the GI50 [3] was 20.6 µM (inactive). For the same compound, the GI50 [4] was 15.2 µM (inactive), the GI50 [5] was 18.5 µM (inactive) and the GI50 [6] was 5.87 µM (inactive). For the same compound, the GI50 [7] was 5.82 µM (inactive), the GI50 [8] was 11 µM (inactive) and the GI50 [9] was 15.5 µM (inactive). The GI50 [10] was 17.9 µM (inactive), the GI50 [11] was 14.2 µM (inactive) and the GI50 [12] was 14.8 µM (inactive). The GI50 [13] was 7.52 µM, the GI50 [15] was 20.2 µM (inactive) and the GI50 [16] was 11.1 µM (inactive). For the same compound, the GI50 [17] was 22.9 µM (inactive), the GI50 [18] was 10.6 µM (inactive) and the GI50 [19] was 10.8 µM (inactive). For the same compound, the GI50 [20] was 10.7 µM (inactive), the GI50 [21] was 15.3 µM (inactive) and the GI50 [22] was 4.83 µM (inactive). The GI50 [23] was 29.2 µM (inactive), the GI50 [24] was 13.4 µM (inactive) and the GI50 [25] was 10.1 µM (inactive). For the same compound, the GI50 [26] was 15.5 µM (inactive), the GI50 [27] was 27.9 µM (inactive) and the GI50 [28] was > 100 µM (inactive). The GI50 [29] was 5.58 µM (inactive), the GI50 [30] was 19.2 µM (inactive) and the GI50 [31] was 14.2 µM (inactive). For the same compound, the GI50 [32] was 14.3 µM (inactive), the GI50 [33] was 2.34 µM (inactive) and the GI50 [34] was 32.9 µM (inactive). For the same compound, the GI50 [35] was 13.2 µM (inactive), the GI50 [36] was 14.8 µM (inactive) and the GI50 [37] was 22.7 µM (inactive). For the same compound, the GI50 [38] was 16.2 µM (inactive), the GI50 [39] was 12.6 µM (inactive) and the GI50 [40] was 5.89 µM (inactive). For the same compound, the GI50 [57] was 14.6 µM (inactive), the GI50 [41] was 12.1 µM (inactive) and the GI50 [42] was 19.8 µM (inactive). For the same compound, the GI50 [43] was 12.2 µM (inactive), the GI50 [44] was 16 µM (inactive) and the GI50 [58] was 16.1 µM (inactive). For the same compound, the GI50 [45] was 16.3 µM (inactive), the GI50 [47] was 16.1 µM (inactive) and the GI50 [48] was 17.5 µM (inactive). For the same compound, the GI50 [49] was 19 µM (inactive), the GI50 [50] was 6.38 µM (inactive) and the GI50 [51] was 11.6 µM (inactive). For the same compound, the GI50 [52] was 11.9 µM (inactive), the GI50 [53] was 7.18 µM (inactive) and the GI50 [54] was 18.7 µM (inactive). For the same compound, the GI50 [55] was 16.5 µM (inactive) and the GI50 [56] was 15.1 µM (inactive).
